Experiments:
CIA in DBA/1 mice = test: Experimental arthritis (collagen induced arthritis, CIA) in mice; format: in vivo, mouse; details: injected intraperitoneally twice a week
EAE mice = test: Experimental autoimmune encephalomyelitis (EAE), animal model of MS; format: in vivo, mouse; details: injected intraperitoneally twice a week at 10 mg/Kg
Protocol: Active EAE in wild-type C57Bl/6 mice was induced as described. Briefly, the mice were challenged in the […] with an emulsion containing 50 μg of MOG p35-55 peptide ( ) supplemented with 8 mg/ml heat-inactivated Mycobacterium tuberculosis (H37Ra strain; Difco Laboratories) in CFA (Difco Laboratories) on day 0 in the tail base. Booster immunization with an identical emulsion was given on both sides. Bordetella pertussis toxin (PT) (List Biologicals) were administered i.p. (200 ng/mouse) 48 h after the immunization. For induction of EAE in MOGi-cre/Atx^n/n mice, the doses for MOG35-55 peptide and PT were the same as for wild type mice Atx^n/n. From mice injected at 8 to 12 weeks of age, representative animals were fixed for immunohistochemistry (4% paraformaldehyde in phosphate-buffered saline) and then 7-μm thick frozen sections were used for immunohistochemistry, or fixed in 10% buffered formalin overnight at 4° C. for histopathology. […]
Mice were observed daily for clinical signs of EAE. The severity of EAE was evaluated and scored as follows: 0, no clinical disease; 1, tail paralysis; 2, hindlimb weakness and abnormal gait (incomplete paralysis of one or two hindlimbs); 3, paraplegia (complete paralysis of one or two hindlimbs); 4, quadriplegia; 5, moribund or dead animals.

WT mice (C57/BL6) = test: BLM-induced pulmonary fibrosis in mice; format: in vivo, mouse
Text: 8-12 week old littermate mice were divided into an experimental group that received intratracheal Bleomycin (BLM, 0.08 U) and a control group that received Normal Saline instead. Mice were sacrificed at 7 and 14 days post BLM instillation for pathology evaluation.
Age and sex-matched 6-8 week old WT (C57/Bl6) mice were divided in four study groups according to the treatment regime.
Group A (n=5) received i.p injections of Veh (water) twice per week for two weeks starting at day −1 and instilled with Saline intratracheally at day 0.
Group B (n=3) received i.p injections of BRP-LPA (10 mg/Kg) twice per week for two weeks starting at day −1 and instilled with Saline intratracheally at day 0.
Group C (n=9) received i.p injections of Veh twice per week for two weeks starting at day −1 and instilled with BLM (0.08 U) intratracheally at day 0.
Group D (n=8) received i.p injections of BRP-LPA (10 mg/Kg) twice per week for two weeks starting at day −1 and instilled with BLM (0.08 U) intratracheally at day 0. A schematic representation of the time course of the protocol is depicted below.
All mice were sacrificed at day 14 after BLM instillation for disease evaluation. […] Lungs were lavaged 3 times with 1 ml aliquots of saline (BAL) followed by perfusion through the right ventricle of the heart with 10 ml of PBS. BAL fluid was centrifuged and cell pellets were used for total cell counts with Trypan Blue while the supernatant was snap frozen.
Right lung was instilled with 1 ml of buffered formalin, dissected and fixed O/N in formalin. Left lung was snap frozen and used for soluble collagen measurements using the Sircol assay.
Schematic representation of BRP-LPA administration protocol. BRP-LPA (or water) was administered intraperioneally in mice starting one day before BLM (or Sal) instillation and every three other days until the end of the study (14 days). Pulmonary fibrosis was induced with a single i.t. instillation of BLM at day 0.
Soluble collagen measurements were performed using the Sircol reagent according to manufacture's recommendations.

ATX [1] = test: ATX ELISA in plasma and BAL fluids of control and BLM treated mice; format: in vivo, mouse; details: saline treated, naive mice; same trend in BLM-treated mice
Protocol: To detect ATX in biological fluids, a direct ELISA assay was developed using the commercially available anti-phospholipase D polyclonal antibody (Cat. No. 10005375, Cayman chemical, USA). The bottom of a NUNC-IMMUNO 96 MicroWell Elisa plate was coated overnight with 100 μl of 1:200 diluted serum in 0.05 M carbonate/bicarbonate coating buffer, pH 9.5 (Cat. No. S7795/S7277, Sigma, Saint Louis, […]., USA), washed three times with 0.05% Tween-20 (Cat. No. P1379, Sigma, USA) in TBS and blocked with 0.1% Bovine Serum Albumin (Cat. No. A7888, Sigma, USA) in 0.05% TBST for 1 h at RT. For each ELISA assay, 100 μl of two-fold serial dilutions of recombinant ATX protein ranging from 0.1 to 1.6 μg/ml were plated as standard curve and treated as all samples.
The plate was then incubated with 0.5 μg/ml detection antibody for 1 h and washed three times with 0.05% TBST. Autotaxin antigen was then detected with an anti-rabbit HRP-labeled secondary antibody (Cat. No. 4010-05, SouthernBiotech, USA) that was developed with TMB substrate (Cat. No. […], Sigma, USA). Readings were obtained at 450 nm. All samples and standards were assayed in triplicates.

ATX [2] = biological target: T1, ATX (Mus musculus, UniProt Q9R1E6); test: ATX activity assay (FS-3 cleavage) in plasma of saline- and BLM-treated mice; format: in vivo; details: both in saline- and BLM-treated mice
T1 construct: from tissue; host or cells: BAL fluid of WT mice exposed to aerosolised LPS
Protocol: […] […] Reactions were incubated at 37° C. in a Tecan Infinite 200 microplate reader (Tecan Trading AG, Switzerland) set to make fluorescence measurements every 5 min for 1 hour. Autotaxin activity was quantitated by measuring the rate of increase in fluorescence at 528 nm with excitation at 485 nm.

WT mice = test: LPS-induced lung inflammation (aerosolised LPS) in mice; format: in vivo, mouse
Protocol: 6-8 week old littermate mice were divided into an experimental group that received aerosolised LPS (from Pseudomonas aeruginosa, 10 mg dissolved in 3 ml Normal Saline) and a control group that received Normal Saline instead. […] The LPS solution was administered by a custom-made nebuliser flowing at 4 l/min oxygen for 20-25 min into an airtight chamber containing 5-7 mice. All analyses were performed 24 h later.
Upon euthanasia, blood was drawn from the vena cava and was added to 50 mM EDTA for plasma preparations. Lungs were lavaged with an aliquot of 1 ml normal saline followed by 2 ml of saline (Bronchoalveolar Lavage Fluid. BALF). BALF aliquots were centrifuged; the cell pellets were combined and used for total cell counts with Trypan Blue while supernatants were snap-frozen. Lungs were then perfused with 10 ml of PBS through the spontaneous beating right ventricle and the left lung was snap-frozen for future analysis while the right lung was fixed in 10% neutral buffered formalin. Tissues were embedded in paraffin, and 5-μm-thick sections were cut at the median transverse level of the lungs. Sections were mounted on glass slides and stained with H&E.
Total protein concentration in BALFs was measured using the Bradford protein assay (Biorad, Hercules, Calif.) according to manufacturer's recommendations. OD readings of samples were converted to μg/ml using values obtained from a standard curve generated with serial dilutions of bovine serum albumin (50-500 μg/ml).

ATX [3] = biological target: T1, ATX; test: ATX activity assay (FS-3 cleavage) in BAL fluids, LPS model; format: in vivo; details: intratracheal prior to LPS; 24 hr
Protocol: Autotaxin activity in BALF of mice was determined using the cleavage of the ATX-specific fluorogenic substrate FS-3 (Echelon Biosciences, UT, USA). Assays were conducted in a final volume of 100 μl comprising 20 μl 5× assay buffer (700 mM NaCl, 25 mM KCl, 5 mM MgCl2 and 250 mM Tris, pH 8.0), 20 μl of FS-3 (final concentration 2.5 μM) and 60 μl of BALF (diluted 1:2 in 1×PBS). Reactions were incubated at 37° C. in a Tecan Infinite 200 microplate reader (Tecan Trading AG, Switzerland) set to make fluorescence measurements every 5 min for 1 hour. Autotaxin activity was quantitated by measuring the rate of increase in fluorescence at 528 nm with excitation at 485 nm.

## CCCCCCCCCCCCCCCC(=O)OC[C@@H](O)CC(Br)P(=O)(O)O (stereo partly drawn) [BrP-LPA, 1-Bromo-3(S)-hydroxy-4-(palmitoyloxy)butyl-phosphonate]
CIA in DBA/1 mice
  disease development (clinical and histopathological analysis): attenuated disease development
EAE mice
  disease development (clinical score): attenuated disease development
WT mice (C57/BL6); 10 mg/Kg i.p. biweekly, 14 days after BLM, vs vehicle
  fibrosis development (histopathology, H/E lung sections): development of focal areas of fibrosis with a patchy distribution in lung parenchyma
WT mice (C57/BL6); 10 mg/Kg i.p., 14 days after BLM, vs Veh-treated mice
  soluble collagen accumulation: significant reduction of collagen accumulation
WT mice (C57/BL6); 14 days post BLM administration, Brp- vs Veh-treated
  BAL total cell counts: did not differ
WT mice (C57/BL6); vehicle- vs BrP-treated mice after BLM
  total protein content in BAL fluids: did not differ
ATX [1]
  levels of ATX in plasma and in BAL fluids: non statistical increase
ATX [2]
  ATX activity in plasma: reduced ATX activity
WT mice; BrP-LPA 100 μg/mouse intratracheally prior to aerosolized LPS (10 mg)
  BAL fluid total cell counts (recruitment of neutrophils in the lungs): 1.9×10^6±0.16
WT mice; LPS-exposed mice, vs vehicle-treated mice
  BAL protein content: significantly elevated
WT mice; intratracheal prior to LPS exposure, 24 hr
  LPS-induced lung inflammation and alveolar edema (histopathology, BALF total cell counts): significant increases
WT mice; saline treated mice
  total protein concentration in BAL fluids: increased total protein concentration
ATX [3]
  ATX enzymatic activity in BAL fluids: failed to detect lower levels of enzymatic activity

Reference: patent publication US20130202614A1, “AUTOTAXIN PATHWAY MODULATION AND USES THEREOF” (B.S.R.C. "ALEXANDER FLEMING", priority 2010, published 2013)
